For this assay, the system named is human OA synovium explants. As to the kind of experiment: PGE2 levels in culture supernatant of synovium explants. The assay is classed as cell-based. The conditions noted are these: n = 5 donors, 24 h, relative to control (Figure 6C). How it is done: Figure 6 Peptide p[63−82] activity on OA knee joint tissues Human OA knee joint tissues were cultured for 24 h in the presence of BMP7, peptide p[63−82], or the scrambled version of peptide p[63−82] and compared to control conditions. (A) Cartilage tissues (n = 7 individual donors) were exposed to shown conditions and analyzed for COL2A1, COL10A1, and COX-2 mRNA expression by quantitative real-time PCR (normalized for 28S rRNA expression and relative to control conditions). (B) GAG release in medium from cartilage tissues (n = 5 individual donors) was determined, and data were calculated relative to the control condition. (C) PGE2 levels in culture supernatant from synovium (n = 5 donors). (D) PGE2 levels in culture supernatant from cartilage tissues from (B) (n = 5 donors). (E) PGE2 levels in culture supernatant from IPFP (n = 5 donors). (F) PGE2 levels in culture supernatant from the meniscus. Synovium, IPFP, and meniscus tissues were from the same 5 donors as the cartilage tissues in (B) and (C). PGE2 levels in conditions were calculated relative to controls for each donor. In graphs, error bars represent mean ± SEM; data are presented relative to the control condition for each time point. Statistical differences (unpaired two-tailed Student’s t test) were calculated to control condition: ∗p < 0.05, ∗∗p < 0.01, and ∗∗∗p < 0.001. […]

Take “BMP7: full-length recombinant bone morphogenetic protein 7 (R&D Systems), used at 1 nM”: the “PGE2 levels in culture supernatants of synovial explants” value is on record as “not significantly changed”. On to H-AAYYSEGESAFPLNSYMNAT-OH [p[63−82]], for which the “PGE2 levels in culture supernatants of synovial explants” value was “not significantly changed”.

(Values after article PMC8022858, “Discovery of bone morphogenetic protein 7-derived peptide sequences that attenuate the human osteoarthritic chondrocyte phenotype” (Molecular Therapy. Methods & Clinical Development, 2021).)
